Where two headings read alike, the source gives them in different places.
Columns and labels:
Assay type in all cases: biochemical
[1] = molecular target: recombinant human MMP-12 catalytic domain (Homo sapiens (Human), UniProt P39900); assay: MMP-12 inhibitory assay (fluorogenic substrate cleavage)
Experimental: (§1) The inhibitory effect of compounds on the rate of cleaving fluorogenic MMP substrate (Enzo, BML-P128) by recombinant human MMP-12 catalytic domain (Enzo, BML-SE138) was carried out by methods known in the art. Briefly, to each well of a 96-well black opaque plate, all the reagents were sequentially added by pipetting, and the final reaction contained 4 nM of recombinant human MMP-12 catalytic domain, 4 μM of fluorogenic MMP substrate, and various concentrations (0.15 nM to 10,000 nM) of tested compound dilutions in HEPES buffer (pH 7.5) containing 10 mM of CaCl2, 0.01% Brij® 35 (polyoxyethylene (23) lauryl ether), and 0.1 mg/ml of BSA.
(§2) The enzyme and compounds were pre-incubated on a shaker to mix in wells. After an hour of mixing, fluorogenic substrate was added to each well. Reaction without enzyme was used as a blank control in the plate. The plate was then fed into a plate reader to measure fluorescence intensity at Excitation/Emission wavelengths of 340 nm/440 nm every 10 mins for at least 1 hour at 37° C. The IC50 of each compound in MMP-12 inhibition was determined by using a readout obtained at time point 30 minutes.

[2] = molecular target: recombinant human MMP-1 (Homo sapiens (Human), UniProt P03956); assay: MMP selectivity assay MMP-1
Chain of recombinant human MMP-1 (P03956 100-469): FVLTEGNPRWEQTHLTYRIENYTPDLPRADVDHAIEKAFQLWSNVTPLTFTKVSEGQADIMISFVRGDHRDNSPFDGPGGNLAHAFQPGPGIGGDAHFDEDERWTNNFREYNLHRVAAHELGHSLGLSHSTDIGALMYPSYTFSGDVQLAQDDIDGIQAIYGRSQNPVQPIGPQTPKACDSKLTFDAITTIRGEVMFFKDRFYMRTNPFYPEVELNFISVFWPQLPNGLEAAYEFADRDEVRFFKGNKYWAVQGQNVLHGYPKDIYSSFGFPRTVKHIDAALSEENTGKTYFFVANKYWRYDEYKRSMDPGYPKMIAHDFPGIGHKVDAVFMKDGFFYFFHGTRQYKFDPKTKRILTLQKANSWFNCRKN
Experimental: as §1, §2
(§3) The MMP selectivity assay was performed by using other recombinant human MMPs, including MMP-1, MMP-2, MMP-3, MMP-7, MMP-8, MMP-9, MMP-10, MMP-13, and MMP-14. The IC50 of the compounds for the other recombinant human MMPs was determined as described above in Example 1, and are shown in Table 2.

[3] = molecular target: recombinant human MMP-2 (Homo sapiens (Human), UniProt P08253); assay: MMP selectivity assay MMP-2
Chain of recombinant human MMP-2 (P08253 110-660): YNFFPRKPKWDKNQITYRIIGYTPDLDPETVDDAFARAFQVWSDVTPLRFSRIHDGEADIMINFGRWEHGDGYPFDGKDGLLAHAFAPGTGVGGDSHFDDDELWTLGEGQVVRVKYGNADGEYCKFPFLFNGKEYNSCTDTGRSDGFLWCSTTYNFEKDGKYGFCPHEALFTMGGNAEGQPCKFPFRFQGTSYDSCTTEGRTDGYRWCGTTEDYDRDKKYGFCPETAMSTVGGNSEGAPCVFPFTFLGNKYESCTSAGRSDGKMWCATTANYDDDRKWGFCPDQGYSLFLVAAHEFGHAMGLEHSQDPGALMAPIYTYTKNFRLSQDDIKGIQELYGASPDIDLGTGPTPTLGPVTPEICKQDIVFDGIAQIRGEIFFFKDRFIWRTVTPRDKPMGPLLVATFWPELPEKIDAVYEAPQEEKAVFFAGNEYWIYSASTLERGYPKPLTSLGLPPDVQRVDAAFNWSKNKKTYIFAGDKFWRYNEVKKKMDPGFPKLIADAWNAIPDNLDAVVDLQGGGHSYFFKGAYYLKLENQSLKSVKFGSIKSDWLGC
Experimental: as §1, §2, §3

[4] = molecular target: recombinant human MMP-3 (Homo sapiens (Human), UniProt P08254); assay: MMP selectivity assay MMP-3
Chain of recombinant human MMP-3 (P08254 100-477): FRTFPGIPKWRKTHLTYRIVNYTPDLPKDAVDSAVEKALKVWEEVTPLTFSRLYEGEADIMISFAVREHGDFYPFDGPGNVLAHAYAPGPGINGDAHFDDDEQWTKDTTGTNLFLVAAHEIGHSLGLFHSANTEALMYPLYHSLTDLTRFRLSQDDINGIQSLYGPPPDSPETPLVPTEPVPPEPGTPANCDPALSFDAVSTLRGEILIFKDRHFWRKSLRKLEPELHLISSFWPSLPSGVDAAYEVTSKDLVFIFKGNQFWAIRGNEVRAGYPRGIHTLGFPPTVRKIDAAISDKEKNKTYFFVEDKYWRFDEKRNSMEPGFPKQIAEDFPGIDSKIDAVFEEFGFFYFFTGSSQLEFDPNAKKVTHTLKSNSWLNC
Experimental: as §1, §2, §3

[5] = molecular target: recombinant human MMP-7 (Homo sapiens (Human), UniProt P09237); assay: MMP selectivity assay MMP-7
Chain of recombinant human MMP-7 (P09237 95-267): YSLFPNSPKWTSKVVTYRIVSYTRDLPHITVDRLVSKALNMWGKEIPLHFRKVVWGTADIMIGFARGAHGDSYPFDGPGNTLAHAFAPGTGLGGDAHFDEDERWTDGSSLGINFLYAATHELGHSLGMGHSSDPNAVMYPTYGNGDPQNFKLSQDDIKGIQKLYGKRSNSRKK
Experimental: as §1, §2, §3

[6] = molecular target: recombinant human MMP-8 (Homo sapiens (Human), UniProt P22894); assay: MMP selectivity assay MMP-8
Chain of recombinant human MMP-8 (P22894 101-467): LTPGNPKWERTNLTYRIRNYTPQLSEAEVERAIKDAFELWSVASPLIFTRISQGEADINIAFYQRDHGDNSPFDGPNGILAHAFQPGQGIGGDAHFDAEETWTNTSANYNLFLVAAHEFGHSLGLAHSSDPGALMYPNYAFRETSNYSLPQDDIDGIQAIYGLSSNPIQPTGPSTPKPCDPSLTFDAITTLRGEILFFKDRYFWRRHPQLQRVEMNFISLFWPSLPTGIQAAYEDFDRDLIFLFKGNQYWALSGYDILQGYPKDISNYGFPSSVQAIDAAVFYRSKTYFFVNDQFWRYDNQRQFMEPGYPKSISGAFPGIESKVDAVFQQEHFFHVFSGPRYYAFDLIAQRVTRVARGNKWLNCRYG
Experimental: as §1, §2, §3

[7] = molecular target: recombinant human MMP-9 (Homo sapiens (Human), UniProt P14780); assay: MMP selectivity assay MMP-9
Chain of recombinant human MMP-9 (P14780 94-707): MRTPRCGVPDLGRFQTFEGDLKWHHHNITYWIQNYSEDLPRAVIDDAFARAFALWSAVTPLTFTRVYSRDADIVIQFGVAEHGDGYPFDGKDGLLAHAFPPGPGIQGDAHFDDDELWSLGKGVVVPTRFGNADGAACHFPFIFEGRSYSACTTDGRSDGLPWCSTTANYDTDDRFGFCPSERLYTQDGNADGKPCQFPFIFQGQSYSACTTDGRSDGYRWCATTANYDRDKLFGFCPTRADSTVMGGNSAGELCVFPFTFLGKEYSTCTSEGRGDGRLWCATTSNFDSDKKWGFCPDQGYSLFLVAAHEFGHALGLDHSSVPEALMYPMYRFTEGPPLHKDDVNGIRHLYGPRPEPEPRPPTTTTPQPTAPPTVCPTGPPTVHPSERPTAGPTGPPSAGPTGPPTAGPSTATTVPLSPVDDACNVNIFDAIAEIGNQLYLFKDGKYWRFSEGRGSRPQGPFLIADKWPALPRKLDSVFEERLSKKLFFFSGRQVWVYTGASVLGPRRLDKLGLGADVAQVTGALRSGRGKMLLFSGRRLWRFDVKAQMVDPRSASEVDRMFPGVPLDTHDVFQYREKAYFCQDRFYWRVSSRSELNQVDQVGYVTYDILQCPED
Experimental: as §1, §2, §3

[8] = molecular target: recombinant human MMP-10 (Homo sapiens (Human), UniProt P09238); assay: MMP selectivity assay MMP-10
Chain of recombinant human MMP-10 (P09238 99-476): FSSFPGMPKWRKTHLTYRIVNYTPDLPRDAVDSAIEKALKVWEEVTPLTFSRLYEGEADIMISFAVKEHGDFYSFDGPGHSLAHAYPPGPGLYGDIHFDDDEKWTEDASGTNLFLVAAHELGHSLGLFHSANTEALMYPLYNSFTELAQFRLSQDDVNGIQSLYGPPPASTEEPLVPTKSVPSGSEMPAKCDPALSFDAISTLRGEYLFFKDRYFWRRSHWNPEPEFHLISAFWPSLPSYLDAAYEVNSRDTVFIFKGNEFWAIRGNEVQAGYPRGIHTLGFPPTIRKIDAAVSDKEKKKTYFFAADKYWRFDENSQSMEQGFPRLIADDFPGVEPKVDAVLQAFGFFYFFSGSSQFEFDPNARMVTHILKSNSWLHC
Experimental: as §1, §2, §3

[9] = molecular target: recombinant human MMP-13 (Homo sapiens (Human), UniProt P45452); assay: MMP selectivity assay MMP-13
Experimental: as §1, §2, §3

[10] = molecular target: recombinant human MMP-14 (Homo sapiens (Human), UniProt P50281); assay: MMP selectivity assay MMP-14
Experimental: as §1, §2, §3

[11] = readout at 30 minutes, read-out: MMP-12 IC50
[12] = Table 2 selectivity profile, read-out: MMP-12 activity (IC50)

Chain of recombinant human MMP-12 catalytic domain (P39900 106-263): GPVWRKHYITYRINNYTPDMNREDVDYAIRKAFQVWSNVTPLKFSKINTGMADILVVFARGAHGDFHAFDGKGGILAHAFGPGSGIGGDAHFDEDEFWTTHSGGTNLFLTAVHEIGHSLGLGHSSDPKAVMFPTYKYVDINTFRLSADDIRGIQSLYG

With Cc1ccnc(COc2ccc(Sc3ccoc3C3NC(=O)NC3=O)cc2)c1 (stereo not shown) [FC-1] the IC50 [1, 11] was 100 to 1000 nM.
Cc1cccc(COc2ccc(Sc3ccoc3C3NC(=O)NC3=O)cc2)n1 (stereo not shown) [FC-2] showed an IC50 [1, 11] of 10 to 100 nM.
In the case of Cc1cncc(COc2ccc(Sc3ccoc3C3NC(=O)NC3=O)cc2)c1 (stereo not shown) [FC-3], the IC50 [1, 11] is reported as 10 to 100 nM.
With Cc1cccc(COc2ccc(Sc3ccoc3C3NC(=O)NC3=O)cc2)[n+]1O (stereo not shown) [FC-5] the IC50 [1, 11] was > 1000 nM.
In the case of Cc1cc(COc2ccc(Sc3ccoc3C3NC(=O)NC3=O)cc2)c[n+]([O-])c1 (stereo not shown) [FC-6], the IC50 [1, 11] is reported as 100 to 1000 nM.
Work on Cc1cc(COc2ccc(Sc3ccoc3C3NC(=O)NC3=O)cc2)cc[n+]1[O-] (stereo not shown) [FC-7] yielded an IC50 [1, 11] of 10 to 100 nM.
Cc1cccc(COc2ccc(Sc3ccoc3C3(C)NC(=O)NC3=O)cc2)c1 (stereo not shown) [FC-8] was tested, and the IC50 [1, 11] was < 10 nM.
With CCC1(c2occc2Sc2ccc(OCc3cccc(C)c3)cc2)NC(=O)NC1=O (stereo not shown) [FC-9] the IC50 [1, 11] was 10 to 100 nM.
In the case of Cc1cccc(COc2ccc(Sc3ccoc3C3(CC(C)C)NC(=O)NC3=O)cc2)c1 (stereo not shown) [FC-10], the IC50 [1, 12] is reported as < 10 nM, the IC50 [1, 11] is reported as < 10 nM and the IC50 [2] is reported as > 10000 nM. For the same compound, the IC50 [3] was 1000 to 10000 nM, the IC50 [4] was 100 to 1000 nM and the IC50 [5] was > 10000 nM. The IC50 [6] was 1000 to 10000 nM, the IC50 [7] was 1000 to 10000 nM and the IC50 [8] was 1000 to 10000 nM. It also gave an IC50 [9] of 1000 to 10000 nM and an IC50 [10] of 1000 to 10000 nM.
With CCCC1(c2occc2Sc2ccc(OCc3cccc(C)c3)cc2)NC(=O)NC1=O (stereo not shown) [FC-11] the IC50 [1, 12] was < 10 nM, the IC50 [1, 11] was < 10 nM and the IC50 [2] was > 10000 nM. The IC50 [3] was 1000 to 10000 nM, the IC50 [4] was 100 to 1000 nM and the IC50 [5] was > 10000 nM. The IC50 [6] was 1000 to 10000 nM, the IC50 [7] was 1000 to 10000 nM and the IC50 [8] was 1000 to 10000 nM. For the same compound, the IC50 [9] was 1000 to 10000 nM and the IC50 [10] was 1000 to 10000 nM.
For Cc1cccc(COc2ccc(Sc3ccoc3C3(C(C)C)NC(=O)NC3=O)cc2)c1 (stereo not shown) [FC-12], the IC50 [1, 11] was < 10 nM.
With COc1cc(COc2ccc(Sc3ccoc3C3NC(=O)NC3=O)cc2)ccn1 (stereo not shown) [FC-13] the IC50 [1, 11] was 10 to 100 nM.
In the case of CCOc1cc(COc2ccc(Sc3ccoc3C3NC(=O)NC3=O)cc2)ccn1 (stereo not shown) [FC-14], the IC50 [1, 11] is reported as 10 to 100 nM.
For CC(C)COc1cc(COc2ccc(Sc3ccoc3C3NC(=O)NC3=O)cc2)ccn1 (stereo not shown) [FC-15], the IC50 [1, 11] was 100 to 1000 nM.
Compound CC(C)Oc1cc(COc2ccc(Sc3ccoc3C3NC(=O)NC3=O)cc2)ccn1 (stereo not shown) [FC-16] has an IC50 [1, 11] of 100 to 1000 nM.
NC(=O)c1cccc(COc2ccc(Sc3ccoc3C3NC(=O)NC3=O)cc2)c1 (stereo not shown) [FC-17] was tested, and the IC50 [1, 12] was < 10 nM, the IC50 [1, 11] was < 10 nM and the IC50 [2] was > 10000 nM. For the same compound, the IC50 [3] was 100 to 1000 nM, the IC50 [4] was 100 to 1000 nM and the IC50 [5] was > 10000 nM. The IC50 [6] was 100 to 1000 nM, the IC50 [7] was 1000 to 10000 nM and the IC50 [8] was 100 to 1000 nM. It also gave an IC50 [9] of 100 to 1000 nM and an IC50 [10] of 1000 to 10000 nM.
Work on NC(=O)c1ccc(COc2ccc(Sc3ccoc3C3NC(=O)NC3=O)cc2)cc1 (stereo not shown) [FC-18] yielded an IC50 [1, 11] of 10 to 100 nM.
CCOc1cccc(COc2ccc(Sc3ccoc3C3NC(=O)NC3=O)cc2)c1 (stereo not shown) [FC-20] showed an IC50 [1, 11] of 100 to 1000 nM.
CC(C)Oc1cccc(COc2ccc(Sc3ccoc3C3NC(=O)NC3=O)cc2)c1 (stereo not shown) [FC-21] showed an IC50 [1, 11] of 100 to 1000 nM.
In the case of CCCOc1cccc(COc2ccc(Sc3ccoc3C3NC(=O)NC3=O)cc2)c1 (stereo not shown) [FC-22], the IC50 [1, 11] is reported as > 1000 nM.
With O=C1NC(=O)C(c2occc2Sc2ccc(OCc3cccc(CO)c3)cc2)N1 (stereo not shown) [FC-23] the IC50 [1, 12] was < 10 nM, the IC50 [1, 11] was < 10 nM and the IC50 [2] was > 10000 nM. For the same compound, the IC50 [3] was 100 to 1000 nM, the IC50 [4] was 1000 to 10000 nM and the IC50 [5] was > 10000 nM. The IC50 [6] was 1000 to 10000 nM, the IC50 [7] was 1000 to 10000 nM and the IC50 [8] was 1000 to 10000 nM. The IC50 [9] was 1000 to 10000 nM and the IC50 [10] was 1000 to 10000 nM.
For O=C1NC(=O)C(c2occc2Sc2ccc(OCc3ccccc3CO)cc2)N1 (stereo not shown) [FC-24], the IC50 [1, 11] was < 10 nM.
For O=C1NC(=O)C(c2occc2Sc2ccc(OCc3ccc(CO)cc3)cc2)N1 (stereo not shown) [FC-25], the IC50 [1, 11] was < 10 nM.
With O=C1NC(=O)C(c2occc2Sc2ccc(OCc3cccc(O)c3)cc2)N1 (stereo not shown) [FC-26] the IC50 [1, 11] was < 10 nM.
With Cc1cc(Sc2ccc(OCc3cccc(CO)c3)cc2)c(C2NC(=O)NC2=O)o1 (stereo not shown) [FC-27] the IC50 [1, 12] was < 10 nM, the IC50 [1, 11] was < 10 nM and the IC50 [2] was > 10000 nM. For the same compound, the IC50 [3] was 100 to 1000 nM, the IC50 [4] was 100 to 1000 nM and the IC50 [5] was > 10000 nM. It also gave an IC50 [6] of 100 to 1000 nM, an IC50 [7] of 1000 to 10000 nM and an IC50 [8] of 100 to 1000 nM. It also gave an IC50 [9] of 100 to 1000 nM and an IC50 [10] of 1000 to 10000 nM.
Compound Cc1cccc(COc2ccc(Sc3cc(C)oc3C3NC(=O)NC3=O)cc2)c1 (stereo not shown) [FC-28] has an IC50 [1, 11] of 10 to 100 nM.
Compound NC(=O)c1cc(COc2ccc(Sc3ccoc3C3NC(=O)NC3=O)cc2)ccn1 (stereo not shown) [FC-29] has an IC50 [1, 11] of 10 to 100 nM.
With CCC1(c2occc2Sc2ccc(OCc3ccnc(C)c3)cc2)NC(=O)NC1=O (stereo not shown) [FC-32] the IC50 [1, 11] was < 10 nM.
In the case of Cc1cc(CN(C)c2ccc(Sc3ccoc3C3NC(=O)NC3=O)cc2)ccn1 (stereo not shown) [FC-33], the IC50 [1, 11] is reported as > 1000 nM.

Source: patent US10851089B2, “Matrix metalloproteinase (MMP) inhibitors and methods of use thereof” (Foresee Pharmaceuticals Co., Ltd., priority 2018, dated 2020)
